The source of these data is US5688787A, “Substituted β-lactam compounds useful as hypochlesterolemic agents and processes for the preparation thereof” (priority 1996, dated 1997).

Molecules are shown by their SMILES. Like-named read-outs stand apart in the source and are kept apart here.

The assay relates to Hyperlipidemic Hamster. Description: In Vivo Assay of Hypolipidemic Agents Using the Hyperlipidemic Hamster. Conditions: 7 days, percent change versus control, negative = lowering; for change in vivo at 50 mg/kg / change in vivo at 10 mg/kg / change in vivo at 25 mg/kg / change in vivo at 3 mg/kg: Mesocricetus auratus, po, 168 h; for change in vivo at 10 mg/kg: 10 mg/kg once daily oral; for change in vivo at 25 mg/kg: 25 mg/kg once daily oral; for change in vivo at 3 mg/kg: 3 mg/kg once daily oral. The protocol:
In Vivo Assay of Hypolipidemic Agents Using the Hyperlipidemic Hamster
Hamsters are separated into groups of six and given a controlled cholesterol diet (Purina Chow #5001 containing 0.5% cholesterol) for seven days. Diet consumption is monitored to determine dietary cholesterol exposure in the face of test compounds. The animals are dosed with the test compound once daily beginning with the initiation of diet. Dosing is by oral gavage of 0.2mL of corn oil alone (control group) or solution (or suspension) of test compound in corn oil. All animals roodbund or in poor physical condition are euthanized. After seven days, the animals are anesthetized by IM injection of ketamine and sacrificed by decapitation. Blood is collected into vacutainer tubes containing EDTA for plasma lipid analysis and the liver excised for tissue lipid analysis. Data is reported as percent reduction of lipid versus control.
Using the test procedures described above, the following in vitro and in vivo data were obtained for the preferred compounds, which are referred to in the following table by the corresponding example numbers. For the in vitro ACAT data, negative percent inhibition denotes apparent stimulation,while positive numbers denote inhibition. For the in vivo results, data is reported as percent change versus control, therefore, negative numbers indicate a positive lipid-lowering effect.

The mark [1] stands for this setting: 50 mg/kg once daily oral, read-out: % Reduction (in vivo) Cholest. Esters.
Setting [2] is: 50 mg/kg once daily oral, read-out: % Reduction (in vivo) Serum Cholest.
Where [3] appears, read: read-out: % Reduction (in vivo) Cholest. Esters.
Where [4] appears, read: read-out: % Reduction (in vivo) Serum Cholest.

Take `COc1ccc([C@@H]2[C@@H](CCCCCCc3ccccc3)C(=O)N2c2ccc(OC)cc2)cc1` (relative stereo) [Example 5Y]: the change in vivo at 50 mg/kg runs as follows: under setting [1], 0%; under setting [2], -29%.

As for `COc1ccc([C@@H]2[C@@H](OCCc3ccccc3)C(=O)N2c2ccc(OC)cc2)cc1` (relative stereo) [Example 5Z], the change in vivo at 50 mg/kg was 0% under setting [1] and -16% under setting [2].

In the case of `COc1ccc([C@@H]2[C@@H](CCCc3ccccc3)C(=O)N2c2ccc(OC)cc2)cc1` (relative stereo) [Example 5], under “50 mg/kg once daily oral”, the “% Reduction (in vivo) Cholest. Esters” value is recorded as -77.5% and the “% Reduction (in vivo) Serum Cholest.” value was -29%. In addition, under setting [3], the change in vivo at 10 mg/kg is -60% and the change in vivo at 25 mg/kg was -72%. Besides, under setting [4], the change in vivo at 10 mg/kg is -21% and the change in vivo at 25 mg/kg was -20%.

In the case of `COc1ccc([C@@H]2[C@@H](CCCc3ccccc3)C(=O)N2c2ccc(I)cc2)cc1` (relative stereo) [Example 7AA], the change in vivo at 50 mg/kg by setting is: under setting [1], -42%; under setting [2], -10%.

For the compound `CCCCCCCCCC[C@H]1C(=O)N(c2ccc(OC)cc2)[C@@H]1c1ccc(OC)cc1` (relative stereo) [Example 7AG], the change in vivo at 50 mg/kg under setting [1] is -15% and the change in vivo at 50 mg/kg under setting [2] turned out to be 0%.

As for `COc1ccc([C@@H]2[C@@H](/C=C\Cc3ccccc3)C(=O)N2c2ccc(OC)cc2)cc1` (relative stereo) [Example 7AI], the change in vivo at 3 mg/kg is -46% under setting [3] and -11% under setting [4]. Further, the change in vivo at 10 mg/kg reads like this: under setting [3], -73%; under setting [4], -20%. In addition, the change in vivo at 50 mg/kg by setting is: under setting [1], -95%; under setting [2], -63%.

As for `COc1ccc([C@@H]2[C@@H](/C=C/Cc3ccccc3)C(=O)N2c2ccc(OC)cc2)cc1` (relative stereo) [Example 7AJ], the change in vivo at 50 mg/kg is -18% under setting [1] and 0% under setting [2].

On to `COc1ccc([C@@H]2[C@@H](CCCC3CCCCC3)C(=O)N2c2ccc(OC)cc2)cc1` (relative stereo) [Example 7AK], for which the change in vivo at 50 mg/kg is -28% under setting [1] and 12% under setting [2].

On to `COc1ccc([C@@H]2[C@H](Oc3ccc4ccccc4c3)C(=O)N2c2ccc(OC)cc2)cc1` (relative stereo) [Example 7AL], for which the change in vivo at 50 mg/kg is, setting by setting: under setting [1], 0%; under setting [2], -13%.

For the compound `COc1ccc([C@@H]2[C@@H](CCCCCc3ccccc3)C(=O)N2c2ccc(OC)cc2)cc1` (relative stereo) [Example 7AM], the change in vivo at 50 mg/kg was -70% under setting [1] and -24% under setting [2].

Take `COc1ccc([C@@H]2[C@@H](CCOc3ccc([N+](=O)[O-])cc3)C(=O)N2c2ccccc2)cc1` (relative stereo) [Example 7AN]: the change in vivo at 50 mg/kg under setting [1] is -42% and the change in vivo at 50 mg/kg under setting [2] is -12%.

`COc1ccc([C@@H]2[C@@H](Cc3ccc4ccccc4c3)C(=O)N2c2ccccc2)cc1` (relative stereo) [Example 7AO]: the change in vivo at 50 mg/kg was -90% under setting [1] and -41% under setting [2].

For the compound `COc1ccc(OCC[C@H]2C(=O)N(c3ccccc3)[C@@H]2c2ccc(OC)cc2)cc1` (relative stereo) [Example 7AP], the change in vivo at 50 mg/kg by setting is: under setting [1], -82%; under setting [2], -24%.

Take `COc1ccc([C@@H]2[C@H](Cc3ccc4ccccc4c3)C(=O)N2c2ccccc2)cc1` (relative stereo) [Example 7AQ]: the change in vivo at 50 mg/kg under setting [1] is -91% and the change in vivo at 50 mg/kg under setting [2] was -52%.

Regarding `COc1ccc([C@@H]2[C@@H](CCCc3ccccc3)C(=O)N2c2ccc3c(c2)CCC3)cc1` (relative stereo) [Example 7AR], the change in vivo at 50 mg/kg was -88% under setting [1] and -32% under setting [2].

Take `COc1ccc([C@@H]2[C@@H](CCCc3ccccc3)C(=O)N2c2cccc3c2CCCC3)cc1` (relative stereo) [Example 7AS]: the change in vivo at 50 mg/kg is -20% under setting [1] and 0% under setting [2].

Turning to `COc1ccc([C@@H]2[C@@H](CCCc3ccccc3)C(=O)N2c2cnc3ccccc3c2)cc1` (relative stereo) [Example 7AT], the change in vivo at 50 mg/kg by setting is: under setting [1], -32%; under setting [2], -10%.

Take `CCOC(=O)c1ccc(N2C(=O)[C@H](CCCc3ccccc3)[C@H]2c2ccc(OC)cc2)cc1` (relative stereo) [Example 7A]: the change in vivo at 50 mg/kg is -54% under setting [1] and -22% under setting [2].

On to `COc1ccc([C@@H]2[C@@H](CCCc3ccccc3)C(=O)N2c2cccc([N+](=O)[O-])c2)cc1` (relative stereo) [Example 7B], for which the change in vivo at 50 mg/kg was -45% under setting [1] and -13% under setting [2].

Regarding `CCN(CC)c1ccc(N2C(=O)[C@H](CCCc3ccccc3)[C@H]2c2ccc(OC)cc2)cc1` (relative stereo) [Example 7C], the change in vivo at 50 mg/kg is -95% under setting [1] and -51% under setting [2].

As for `COc1ccc([C@@H]2[C@@H](CCCc3ccccc3)C(=O)N2c2ccc(C#N)cc2)cc1` (relative stereo) [Example 7D], the change in vivo at 50 mg/kg by setting is: under setting [1], -74%; under setting [2], -35%.

Turning to `COc1ccc([C@@H]2[C@@H](CCCc3ccccc3)C(=O)N2c2cc(F)cc(F)c2)cc1` (relative stereo) [Example 7E], the change in vivo at 50 mg/kg is -93% under setting [1] and -52% under setting [2].

As to `COc1ccc([C@@H]2[C@@H](CCCc3ccccc3)C(=O)N2c2ccc(OC)nc2)cc1` (relative stereo) [Example 7F], the change in vivo at 50 mg/kg by setting is: under setting [1], -26%; under setting [2], 0%.

For `COC(=O)C=C(C)N[C@@H]1C(=O)N(c2ccccc2)[C@@H]1c1ccc(OC)cc1` (relative stereo) [Example 7J], the change in vivo at 50 mg/kg runs as follows: under setting [1], -27%; under setting [2], -21%.

On to `COc1ccc([C@@H]2[C@H](N(C)CCc3ccccc3)C(=O)N2c2ccccc2)cc1` (relative stereo) [Example 7K], for which the change in vivo at 50 mg/kg by setting is: under setting [1], -32%; under setting [2], 0%.

On to `COc1ccc([C@@H]2[C@H](N3C(=O)c4ccccc4C3=O)C(=O)N2c2ccccc2)cc1` (relative stereo) [Example 7L], for which the change in vivo at 50 mg/kg runs as follows: under setting [1], 0%; under setting [2], 0%.

Take `COc1ccc(N2C(=O)[C@H](CCCc3ccccc3)[C@H]2c2ccc(OC(C)C)cc2)cc1` (relative stereo) [Example 7M]: the change in vivo at 50 mg/kg was -94% under setting [1] and -38% under setting [2].

For the compound `CCOC(=O)[C@@H]1[C@H](CCCc2ccccc2)C(=O)N1c1ccc(OC)cc1` (relative stereo) [Example 7N], the change in vivo at 50 mg/kg under setting [1] was 0% and the change in vivo at 50 mg/kg under setting [2] is -11%.

Take `COc1ccc([C@@H]2[C@@H](CCCc3ccccc3)C(=O)N2c2ccccc2)cn1` (relative stereo) [Example 7O]: the change in vivo at 50 mg/kg is -20% under setting [1] and -14% under setting [2].

On to `CCCOc1ccc([C@@H]2[C@@H](CCCc3ccccc3)C(=O)N2c2ccc(OC)cc2)cc1` (relative stereo) [Example 7P], for which the change in vivo at 50 mg/kg is -95% under setting [1] and -40% under setting [2].

Take `COc1ccc(N2C(=O)[C@H](CCCc3ccccc3)[C@H]2c2ccc(OC)c(C)c2)cc1` (relative stereo) [Example 7Q]: the change in vivo at 50 mg/kg under setting [1] came out at 0% and the change in vivo at 50 mg/kg under setting [2] was -16%.

Consider `COC(=O)c1ccc([C@@H]2[C@@H](CCCc3ccccc3)C(=O)N2c2ccccc2)cc1` (relative stereo) [Example 7R], for which the change in vivo at 50 mg/kg reads like this: under setting [1], -80%; under setting [2], -35%.

For `COc1ccc(N2C(=O)[C@H](CCCc3ccccc3)[C@H]2c2ccc(OC)c(F)c2)cc1` (relative stereo) [Example 7S], the change in vivo at 50 mg/kg under setting [1] was -82% and the change in vivo at 50 mg/kg under setting [2] was -27%.

As to `COCOc1ccc([C@@H]2[C@@H](CCCc3ccccc3)C(=O)N2c2ccccc2)cc1` (relative stereo) [Example 7T], the change in vivo at 50 mg/kg by setting is: under setting [1], -93%; under setting [2], -49%.

On to `COc1ccc(N2C(=O)[C@H](CCCc3ccccc3)[C@H]2c2ccc(N(C)C)cc2)cc1` (relative stereo) [Example 7U], for which the change in vivo at 50 mg/kg under setting [1] was -60% and the change in vivo at 50 mg/kg under setting [2] is -29%.
